Assay results: patent EP4768484A1, “HETEROCYCLIC FUSED RING COMPOUND, AND COMPOSITION AND USE THEREOF” (Shenzhen TargetRx, Inc., priority 2023, dated 2025)

Legend:
Assay type in all cases: cell-based
K562 cells = test: Cell growth inhibitory activity assay (CellTiter-Glo), K562 cells; conditions: Homo sapiens, 72 h, CTG cell viability
Procedure, shortened: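 Growth inhibition of human K562 cells, sourced from Nanjing Kebai (CBP60529), was assessed with Promega's CellTiter-Glo kit, which measures viability through ATP quantification. Log-phase cells went into the inner wells of 96-well plates, with PBS in edge wells, incubated overnight at 37 °C and 5% CO2, then exposed to serially diluted compound for 72 h.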

Ba/F3 BCR-ABL1 T315M = molecular target: T1, Ba/F3 BCR-ABL1 T315M (Homo sapiens, UniProt P00519+P11274, T315M); test: Cell growth inhibitory activity assay (CellTiter-Glo), Ba/F3 BCR-ABL1 T315M cells; conditions: 72 h, CTG cell viability
T1 construct: BCR (N-terminal fusion partner of the oncoprotein); expressed in transfected cells; host or cells: Ba/F3 (lentiviral transduction, monoclonal line)
Procedure: In this assay, the Celltiter-Glo (CTG) kit provided by Promega was used, and it is a homogeneous cell viability assay method. The cell viability of cultured cells was measured by quantifying ATP. K562 cells were purchased from Nanjing Kebai, product number CBP60529; Ba/F3 parental cells were purchased from RIKEN BRC, product number RCB0805; other cells containing BCR-ABL1 WT, BCR-ABL1 T315I, BCR-ABL1 T315M, BCR-ABL1 Y253H/E255K, BCR-ABL1 E255V/T3151, BCR-ABL1 A424T, BCR-ABL1 A337V, BCR-ABL1 P465S, BCR-ABL1 V468F, and BCR-ABL1 I502L were all monoclonal engineered cell lines obtained by transducting Ba/F3 parental cells with the lentivirus plasmids containing WT or corresponding mutated BCR-ABL1.
The steps of cell viability assay are as follows: • a) Cells in logarithmic growth phase were collected. Cell suspension was prepared and the cells were counted. Concentration of the cells was calculated. • b) The cell suspension was diluted to the required concentration and then added to the middle wells of a 96-well plate, and PBS was added to the edge wells. The wells with no cells and only culture medium were used as blank controls. • c) In addition to the cell plate used for compound analysis, another 96-well plate was prepared as a T0 plate, and 3-6 blank wells and 3-6 cell wells were added. The next day, CTG was used to test the cell viability as the T0 viability value of the cells. • d) The cell plate was incubated at 37 °C in a 5% CO2 incubator overnight. • e) The next day, each concentration of a compound subjected to a gradient dilution was added, and the cell plate was incubated at 37 °C in a 5% CO2 incubator for 72 h. The wells with no compound and only 0.5% DMSO were used as positive controls for cell growth. • f) CTG reagent (CellTiter-Glo kit) was added according to the manufacturer's instructions to test the cell viability value. • g) The plate was read using Biotek cytation3.0 microplate reader and the data were exported. • h) IC50 was calculated using GraphPad Prism 7.0 software.
The IC50 (half-maximal inhibitory concentration) of the compound was obtained using the following nonlinear fitting formula: Y = Bottom + (Top−Bottom)/(1+10^(∧)((LogIC50−X)*HillSlope)) [formula] • X: Log value of the compound concentration • Y: Inhibition rate (% inhibition) • Top: Maximum response • Bottom: Baseline response • HillSlope: Slope of the curve
The formula for calculating cell inhibition rate (inhibition rate %) was: [formula]

Ba/F3 BCR-ABL1 WT = molecular target: T2, Ba/F3 BCR-ABL1 WT (Homo sapiens, UniProt P00519+P11274); test: Cell growth inhibitory activity assay (CellTiter-Glo), Ba/F3 BCR-ABL1 WT cells; conditions: 72 h, CTG cell viability
T2 construct: BCR (N-terminal fusion partner of the oncoprotein); expressed in transfected cells; host or cells: Ba/F3 (lentiviral transduction, monoclonal line)
Procedure, shortened: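 Compound dilutions applied for 72 h (37 °C, 5% CO2) to overnight-plated Ba/F3 cells, parental or engineered to express WT/mutant BCR-ABL1. ATP-based CellTiter-Glo luminescence read, referenced to day-0 viability and 0.5% DMSO wells; IC50 fitted by four-parameter logistic curve.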

Ba/F3 BCR-ABL1 T315I = molecular target: T3, Ba/F3 BCR-ABL1 T315I (Homo sapiens, UniProt P00519+P11274, T315I); test: Cell growth inhibitory activity assay (CellTiter-Glo), Ba/F3 BCR-ABL1 T315I cells; conditions: 72 h, CTG cell viability
T3 construct: BCR (N-terminal fusion partner of the oncoprotein); expressed in transfected cells; host or cells: Ba/F3 (lentiviral transduction, monoclonal line)
Procedure, shortened: (§1)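 Growth inhibition is measured in engineered Ba/F3 cells carrying mutant human BCR-ABL1 and in parental Ba/F3. Compounds in dilution series are applied for 72 h, then cellular ATP is quantified with CellTiter-Glo, normalised using a T0 baseline plate, and IC50 derived by nonlinear regression.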

Ba/F3 parental cells = test: Cell growth inhibitory activity assay (CellTiter-Glo), Ba/F3 parental cells; conditions: Mus musculus, BaF3, 72 h, CTG cell viability, read-out: IC50 Ba/F3 BCR-ABL1 Parental
Procedure, shortened: as §1

Row | SMILES | IC50 (K562 cells) | IC50 (Ba/F3 BCR-ABL1 T315M) | IC50 (Ba/F3 BCR-ABL1 WT) | IC50 (Ba/F3 BCR-ABL1 T315I) | IC50 (Ba/F3 parental cells)
1 | CC(=O)N[C@H]1CCC2c3cc(C(=O)Nc4ccc(OC(F)(F)Cl)cc4)cc(-c4cnc5c(c4)C(=O)N(C)C5)c3N(C(C)C)C21 (stereo partly drawn) [T-11-A, (3S)-3-acetamido-N-(4-(chlorodifluoromethoxy)phenyl)-4-isopropyl-5-(6-methyl-5-oxo-6,7-dihydro-5H-pyrrolo[3,4-b]pyridin-3-yl)-1,2,3,3a,4,8b-hexahydrocyclopenta[b]indole-7-carboxamide] | 0.05 to 1 µM | > 1 µM | 0.05 to 1 µM | > 1 µM | > 1 µM
2 | CC(=O)N[C@@H]1CCC2c3cc(C(=O)Nc4ccc(OC(F)(F)Cl)cc4)cc(-c4cnc5c(c4)C(=O)N(C)C5)c3N(C(C)C)C21 (stereo partly drawn) [T-11-B, (3R)-3-acetamido-N-(4-(chlorodifluoromethoxy)phenyl)-4-isopropyl-5-(6-methyl-5-oxo-6,7-dihydro-5H-pyrrolo[3,4-b]pyridin-3-yl)-1,2,3,3a,4,8b-hexahydrocyclopenta[b]indole-7-carboxamide] | ≤ 0.005 µM | 0.05 to 1 µM | ≤ 0.005 µM | 0.005 to 0.05 µM | > 1 µM
3 | CC(=O)N[C@H]1CCC2c3cc(C(=O)Nc4ccc(OC(F)(F)Cl)cc4)cc(-c4cnccn4)c3N(C(C)C)C21 (stereo partly drawn) [T-12-A, (3S)-3-acetamido-N-(4-(chlorodifluoromethoxy)phenyl)-4-isopropyl-5-(pyrazin-2-yl)-1,2,3,3a,4,8b-hexahydrocyclopenta[b]indole-7-carboxamide] | 0.05 to 1 µM | > 1 µM | 0.05 to 1 µM | > 1 µM | > 1 µM
4 | CC(=O)N[C@@H]1CCC2c3cc(C(=O)Nc4ccc(OC(F)(F)Cl)cc4)cc(-c4cnccn4)c3N(C(C)C)C21 (stereo partly drawn) [T-12-B, (3R)-3-acetamido-N-(4-(chlorodifluoromethoxy)phenyl)-4-isopropyl-5-(pyrazin-2-yl)-1,2,3,3a,4,8b-hexahvdrocyclopentalblindole-7-carboxamide] | ≤ 0.005 µM | 0.05 to 1 µM | ≤ 0.005 µM | 0.005 to 0.05 µM | > 1 µM
5 | C[C@@H]1CC[S+]([O-])c2nc3cc(C(=O)Nc4ccc(OC(F)(F)Cl)cc4)cc(-c4cnc5c(c4)C(=O)N(C)C5)c3n21 (stereo partly drawn) [T-27, (4R)-N-(4-(chlorodifluoromethoxy)phenyl)-4-methyl-6-(6-methyl-5-oxo-6,7-dihydro-5H-pyrrolo[3,4-b]pyridin-3-yl)-3,4-dihydro-2H-benzo[4,5]imidazo[2,1-b][1,3]thiazine-8-carboxamide 1-oxide] | ≤ 0.005 µM | > 1 µM | 0.005 to 0.05 µM | 0.05 to 1 µM | > 1 µM
6 | Nc1nc(N2CC[C@@H](F)C2)c(-c2cnc3c(c2)-c2nn(-c4ncc(F)cn4)cc2C3)cc1C(=O)Nc1ccc(OC(F)(F)Cl)cc1 [T-132, (R)-2-amino-N-(4-(chlorodifluoromethoxy)phenyl)-5-(2-(5-fluoropyrimidin-2-yl)-2,4-dihydropyrazolo[3',4':3,4]cyclopenta[1,2-b]pyridin-7-yl)-6-(3-fluoropyrrolidin-1-yl)nicotinamide] | ≤ 0.005 µM |  | ≤ 0.005 µM | ≤ 0.005 µM | 0.05 to 1 µM
7 | N#Cc1ccnc(-n2cc3c(n2)-c2cc(-c4cc(C(=O)Nc5ccc(OC(F)(F)Cl)cc5)c(N)nc4N4CC[C@@H](F)C4)cnc2C3)n1 [T-133, (R)-2-amino-N-(4-(chlorodifluoromethoxy)phenyl)-5-(2-(4-cvanopyrimidin-2-yl)-2,4-dihydropyrazolo[3',4':3,4]cyclopenta[1,2-b]pyridin-7-yl)-6-(3-fluoropyrrolidin-1-yl)nicotinamide] | ≤ 0.005 µM |  | ≤ 0.005 µM | ≤ 0.005 µM | > 1 µM
8 | N#Cc1cnc(-n2cc3c(n2)-c2cc(-c4cc(C(=O)Nc5ccc(OC(F)(F)Cl)cc5)c(N)nc4N4CC[C@@H](F)C4)cnc2C3)nc1 [T-134, (R)-2-amino-N-(4-(chlorodifluoromethoxy)phenyl)-5-(2-(5-cyanopyrimidin-2-yl)-2,4-dihydropyrazolo[3',4':3,4]cyclooenta[1,2-b]pyridin-7-yl)-6-(3-fluoropyrrolidin-1-yl)nicotinamide] | ≤ 0.005 µM |  | ≤ 0.005 µM | 0.05 to 1 µM | 0.05 to 1 µM
